Source: patent US6399662B1, “Method and composition for the treatment of diarrhea and gastrointestinal spasms” (University of Florida, priority 2000, dated 2002)
Structures can show the parent of a compound that is named as a salt.

Columns and labels:
small intestine = conditions: rats; previously reported; cited from earlier work
[1] = mice; HSPM formed by N-deethylation of DEHSPM; cited from earlier work
[2] = dog; compared with 2-3 weeks in mice; cited from earlier work
[3] = system: stress-induced irritable bowel syndrome in rats; experiment: Stress-induced irritable bowel syndrome in rats; type: in vivo, rat (Sprague-Dawley); conditions: for stool output: 30 min before stress, 6-h collection period; for % reduction (stool output): vs control (0 mg/kg), (1.0-T/C) × 100
Protocol: Male Sprague-Dawley rats (200-350 g, Harlan Sprague-Dawley, Indianapolis, Ind.) were housed in hanging wire cages in a temperature- and humidity-controlled room with a 12hour light/dark cycle; the animals were fasted overnight (unless non-fasted rats were utilized in experiments involving PO administration) and allowed free access to water. Animal care and experimental procedures were approved by the Institutional Animal Care and Use Committee. A typical experiment involved 20 rats: 5 untreated controls and 5 pretreated with polyamine analogues at each of three doses as either a SC injection or a PO gavage 30 min prior to commencement of the stress. All animals were then housed in individual polycarbonate cages containing a clear 70×50 mm Pyrex crystallization dish inverted in the center. To begin the stress, water was added to each cage to within 0.5 cm of the top of the Pyrex dish. The fecal output of the animals was recorded at 30-min intervals for a 6-h period, during which they received no food or water. Stool output was expressed as the number of fecal pellets excreted over the 6-h collection period. Percent reduction was calculated by dividing the mean value from the treated animals (T) by the mean value from the control animals (C), subtracting the resulting quotient from 1.0, and multiplying by 100 [i.e., (1.0−T/C)×100].

[4] = system: castor oil-induced diarrhea in rats; experiment: Castor oil-induced diarrhea in rats; type: in vivo, rat (Sprague-Dawley); conditions: for weight loss: 30 min before castor oil 5 mL/kg, 6-h period; for stool output: 30 min before castor oil, 6-h collection period; for % reduction (weight loss) / % reduction (stool output): vs control (0 mg/kg); for % reduction (weight loss): (1.0-T/C) × 100
Protocol: Male Sprague-Dawley rats (350-400 g, Harlan Sprague-Dawley, Indianapolis, Ind.) were fasted overnight in hanging wire cages and allowed free access to water. A typical experiment involved 20 rats: 5 untreated controls and 5 pretreated with polyamine analogues at each of three doses (typically equivalent on a molar basis to 1, 5, 10, or 25 mg/kg of DEHSPM) as either a sc injection or a po gavage 30 min prior to castor oil. All animals were then challenged with castor oil (purchased from a local drugstore) as a gastric gavage of 5 mL/kg of body weight at t=0 and monitored for the onset and duration of diarrhea at 30-min intervals for a 6-h period during which they received no food or water (Eaker, E. Y.; Bixler, G. B.; Mathias, J. R., J. Pharm Exp. Ther. 1988, 246, 786-789). Onset of diarrhea for the control rats was between 30 and 90 min and lasted for at least 6 h. The animal weight and stool weight were recorded at 2, 4, and 6 h.

[5] = sc 0.03125 mg/kg (0.0726 μmol/kg)

Structure (SMILES): CCNCCCCNCCCCNCCCCNCC [DEHSPM, N^1, N^14 diethylhomospermine]
- myoelectric activity and transit of the small intestine (in words) (small intestine): inhibited

Structure (SMILES): NCCCCNCCCCNCCCCN [HSPM, homospermine]
- half life [1]: 2-3 weeks
- half life (in words) [2]: even longer

Structure (SMILES): CCNCCCN[C@H]1CC[C@H](NCCCNCC)CC1 [CHX(3,4,3)-trans, N,N′-Bis[3-(ethylamino)propyl]-trans-1,4-cyclohexanediamine tetrahydrochloride]
- fecal output after oral administration (in words) ([3]; oral, doses ≧5 mg/kg, P≦0.001): diminished fecal output
- stool output [3, 5]: 5.4 ± 2.1 number of fecal pellets
- % reduction (stool output) ([3]; sc 0.03125 mg/kg): 52.2%
- stool output ([3]; sc 0.0625 mg/kg (0.145 μmol/kg)): 2.2 ± 1.3 number of fecal pellets
- % reduction (stool output) ([3]; sc 0.0625 mg/kg): 80.5%
- stool output ([3]; sc 0.125 mg/kg (0.29 μmol/kg)): 0.6 ± 0.9 number of fecal pellets
- % reduction (stool output) ([3]; sc 0.125 mg/kg): 94.7%
- stool output ([3]; sc 0.25 mg/kg (0.58 μmol/kg)): 0 ± 0 number of fecal pellets
- % reduction (stool output) ([3]; sc 0.25 mg/kg): 100%
- stool output ([3]; sc 0.5 mg/kg (1.16 μmol/kg)): 0 ± 0 number of fecal pellets
- % reduction (stool output) ([3]; sc 0.5 mg/kg): 100%
- stool output ([3]; sc 0.99 mg/kg (2.3 μmol/kg)): 0 ± 0 number of fecal pellets
- % reduction (stool output) ([3]; sc 0.99 mg/kg): 100%
- reduction in fecal output (in words) ([3]; sc, doses ranging from 0.03 mg/kg to 0.99 mg/kg, all dose levels, P<0.001): significant reduction in fecal output
- weight loss ([4]; sc 0.0078 mg/kg (0.0181 μmol/kg)): 8.8 ± 1.2 g of weight lost per 350 g of rat weight
- stool output ([4]; sc 0.0078 mg/kg): 3.6 ± 1.3 g of stool excreted per 350 g of rat weight
- % reduction (weight loss) ([4]; sc 0.0078 mg/kg): 24%
- weight loss ([4]; sc 0.0156 mg/kg (0.036 μmol/kg)): 3.1 ± 1.2 g of weight lost per 350 g of rat weight
- stool output ([4]; sc 0.0156 mg/kg): 0.4 ± 0.9 g of stool excreted per 350 g of rat weight
- % reduction (stool output) ([4]; sc 0.0156 mg/kg): 92%
- % reduction (weight loss) ([4]; sc 0.0156 mg/kg): 73%
- weight loss [4, 5]: 4.2 ± 1.7 g of weight lost per 350 g of rat weight
- stool output ([4]; sc 0.03125 mg/kg): 0 ± 0 g of stool excreted per 350 g of rat weight
- % reduction (stool output) ([4]; sc 0.03125 mg/kg): 100%
- % reduction (weight loss) ([4]; sc 0.03125 mg/kg): 64%
- weight loss ([4]; sc 0.125 mg/kg (0.29 μmol/kg)): 4.1 ± 0.7 g of weight lost per 350 g of rat weight
- stool output ([4]; sc 0.125 mg/kg): 0 ± 0 g of stool excreted per 350 g of rat weight
- % reduction (stool output) ([4]; sc 0.125 mg/kg): 100%
- % reduction (weight loss) ([4]; sc 0.125 mg/kg): 65%
- weight loss ([4]; sc 0.25 mg/kg (0.58 μmol/kg)): 2.7 ± 0.7 g of weight lost per 350 g of rat weight
- stool output ([4]; sc 0.25 mg/kg): 0 ± 0 g of stool excreted per 350 g of rat weight
- % reduction (stool output) ([4]; sc 0.25 mg/kg): 100%
- % reduction (weight loss) ([4]; sc 0.25 mg/kg): 77%
- weight loss ([4]; sc 0.5 mg/kg (1.16 μmol/kg)): 2.9 ± 0.1 g of weight lost per 350 g of rat weight
- stool output ([4]; sc 0.5 mg/kg): 0 ± 0 g of stool excreted per 350 g of rat weight
- % reduction (stool output) ([4]; sc 0.5 mg/kg): 100%
- % reduction (weight loss) ([4]; sc 0.5 mg/kg): 75%
- weight loss ([4]; sc 0.625 mg/kg (0.145 μmol/kg)): 3.7 ± 0.8 g of weight lost per 350 g of rat weight
- stool output ([4]; sc 0.625 mg/kg (0.145 μmol/kg)): 0 ± 0 g of stool excreted per 350 g of rat weight
- % reduction (stool output) ([4]; sc 0.625 mg/kg (0.145 μmol/kg)): 100%
- % reduction (weight loss) ([4]; sc 0.625 mg/kg (0.145 μmol/kg)): 68%
- weight loss ([4]; sc 0.99 mg/kg (2.3 μmol/kg)): 2.7 ± 1.3 g of weight lost per 350 g of rat weight
- stool output ([4]; sc 0.99 mg/kg): 0 ± 0 g of stool excreted per 350 g of rat weight
- % reduction (stool output) ([4]; sc 0.99 mg/kg): 100%
- % reduction (weight loss) ([4]; sc 0.99 mg/kg): 77%
- weight loss ([4]; sc 4.97 mg/kg (11.6 μmol/kg)): 1.6 ± 1.1 g of weight lost per 350 g of rat weight
- stool output ([4]; sc 4.97 mg/kg): 0 ± 0 g of stool excreted per 350 g of rat weight
- % reduction (stool output) ([4]; sc 4.97 mg/kg): 100%
- % reduction (weight loss) ([4]; sc 4.97 mg/kg): 86%
- weight loss ([4]; sc 24.87 mg/kg (57.8 μmol/kg)): 0.8 ± 0.7 g of weight lost per 350 g of rat weight
- stool output ([4]; sc 24.87 mg/kg): 0 ± 0 g of stool excreted per 350 g of rat weight
- % reduction (stool output) ([4]; sc 24.87 mg/kg): 100%
- % reduction (weight loss) ([4]; sc 24.87 mg/kg): 93%
- stool output relative to controls (in words) ([4]; sc doses of 0.0156 mg/kg to 24.9 mg/kg, P<0.001 for all doses): significantly decreased stool output
- reduction in weight loss (in words) ([4]; sc, doses ranging from 0.0078 mg/kg to 24.9 mg/kg, all dose levels, P<0.005 to P<0.001): significant reduction in weight loss
